Source: patent US20260103455A1, “ULK3 INHIBITORS AND USES THEREOF” (H. LEE MOFFITT CANCER CENTER AND RESEARCH INSTITUTE, INC., priority 2022, published 2026)
Several values for one entry are separate records, joined by “and”; a condition that tells them apart may be missing. Equal entries are not always repeated.

Legend:
U266 = assay: GI50 (MM cell) U266; format: cell-based; conditions: Homo sapiens, U-266
OPM2 = assay: GI50 (MM cell) OPM2; format: cell-based; conditions: Homo sapiens, OPM-2
U266 PSR = assay: GI50 (MM cell) U266 PSR; format: cell-based; conditions: Homo sapiens, U-266
8226 = assay: GI50 (MM cell) 8226; format: cell-based
JAK2 [1] = molecular target: T1, JAK2 (Homo sapiens, UniProt O60674); assay: IC50 for JAK2, Reaction Biology kinase assay (32P Hotspot assay); format: biochemical
ULK3 [2] = molecular target: T2, ULK3 (Homo sapiens, UniProt Q6PHR2); assay: IC50 for ULK3, Reaction Biology kinase assay (32P Hotspot assay); format: biochemical
T2 sequence (Q6PHR2 1-472): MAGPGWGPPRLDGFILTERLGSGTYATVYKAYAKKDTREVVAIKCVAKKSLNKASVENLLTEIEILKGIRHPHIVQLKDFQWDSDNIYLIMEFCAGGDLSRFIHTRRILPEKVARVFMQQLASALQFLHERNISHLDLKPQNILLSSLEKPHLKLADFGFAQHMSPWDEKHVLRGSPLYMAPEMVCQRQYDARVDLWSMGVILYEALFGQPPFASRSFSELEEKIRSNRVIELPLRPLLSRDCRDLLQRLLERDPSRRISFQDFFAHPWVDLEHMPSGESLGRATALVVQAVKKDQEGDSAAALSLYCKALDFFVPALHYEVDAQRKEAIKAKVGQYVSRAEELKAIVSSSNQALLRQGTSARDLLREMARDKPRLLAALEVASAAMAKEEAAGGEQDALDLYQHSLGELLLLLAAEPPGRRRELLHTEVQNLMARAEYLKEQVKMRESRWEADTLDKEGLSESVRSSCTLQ

ULK3 [3] = molecular target: T2, ULK3; assay: DSF (ULK3) thermal shift; format: binding
8226 B25 = assay: GI50 (MM cell) 8226 B25; format: cell-based
JAK2 [4] = molecular target: T1, JAK2; assay: DSF (JAK2) thermal shift; format: binding

T1 sequence (O60674 whole entry): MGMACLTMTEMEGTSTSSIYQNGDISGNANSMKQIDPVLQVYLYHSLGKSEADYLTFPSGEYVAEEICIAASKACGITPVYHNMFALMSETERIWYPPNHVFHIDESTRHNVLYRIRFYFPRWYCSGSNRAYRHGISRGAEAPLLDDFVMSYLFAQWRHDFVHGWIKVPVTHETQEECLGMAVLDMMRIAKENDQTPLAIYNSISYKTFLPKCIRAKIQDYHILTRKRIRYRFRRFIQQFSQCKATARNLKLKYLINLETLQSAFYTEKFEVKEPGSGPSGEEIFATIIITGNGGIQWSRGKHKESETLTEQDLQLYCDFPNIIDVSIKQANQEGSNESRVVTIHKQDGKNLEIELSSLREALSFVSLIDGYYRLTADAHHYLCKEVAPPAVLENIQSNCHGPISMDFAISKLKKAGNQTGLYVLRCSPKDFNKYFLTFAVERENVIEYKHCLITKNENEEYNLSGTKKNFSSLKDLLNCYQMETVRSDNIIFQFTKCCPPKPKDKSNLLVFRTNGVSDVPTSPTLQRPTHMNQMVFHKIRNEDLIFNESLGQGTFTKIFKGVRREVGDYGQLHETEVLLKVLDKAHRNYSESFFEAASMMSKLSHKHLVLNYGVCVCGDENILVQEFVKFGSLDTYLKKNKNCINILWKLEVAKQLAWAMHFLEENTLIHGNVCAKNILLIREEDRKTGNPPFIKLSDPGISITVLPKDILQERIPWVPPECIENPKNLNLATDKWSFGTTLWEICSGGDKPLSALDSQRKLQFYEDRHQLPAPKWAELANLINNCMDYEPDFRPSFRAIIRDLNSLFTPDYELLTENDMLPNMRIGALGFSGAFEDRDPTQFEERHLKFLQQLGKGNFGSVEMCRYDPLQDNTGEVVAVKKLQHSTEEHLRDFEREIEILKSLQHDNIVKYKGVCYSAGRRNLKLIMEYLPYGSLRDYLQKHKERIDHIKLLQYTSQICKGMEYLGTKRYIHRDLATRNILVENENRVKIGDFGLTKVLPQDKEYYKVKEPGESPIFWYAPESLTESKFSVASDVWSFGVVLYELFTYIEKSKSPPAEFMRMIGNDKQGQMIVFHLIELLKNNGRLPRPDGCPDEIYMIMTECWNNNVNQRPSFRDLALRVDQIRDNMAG

Structure (SMILES)	GI50 (U266) [nM]	GI50 (U266 PSR) [nM]	IC50 (JAK2 [1]) [nM]	IC50 (ULK3 [2]) [nM]	DSF (ULK3) ΔTm (° C.) (ULK3 [3])	DSF (JAK2) ΔTm (° C.) (JAK2 [4]) [°C]	GI50 (OPM2) [nM]	GI50 8226 [nM]	GI50 (8226 B25) [nM]
CC(C)(C)[C@@H](CO)NC(=O)c1ccc(-c2ccnc(Nc3ccc(N4CCOCC4)cc3)n2)cc1 [BH1-062, (S)—N-(1-Hydroxy-3,3-dimethylbutan-2-yl)-4-(2-((4-morpholinophenyl)amino)pyrimidin-4-yl)benzamide]			12.9			1.0			
Cc1cnc(Nc2ccc(N3CCOCC3)cc2)nc1Nc1ccc(Cl)c(NS(=O)(=O)C(C)(C)C)c1 [BH1-150]			1.25		15.0 °C	2.1			
C[C@@H](NC(=O)c1ccc(-c2ccnc(Nc3ccc(N4CCOCC4)cc3)n2)cc1)C(F)(F)F [BH1-151, (R)-4-(2-((4-Morpholinophenyl)amino)pyrimidin-4-yl)-N-(1,1,1-trifluoropropan-2-yl)benzamide]			1.13		14.0 °C	0.4			
C[C@H](NC(=O)c1ccc(-c2ccnc(Nc3ccc(N4CCOCC4)cc3)n2)cc1)C(F)(F)F [BH1-152, (S)-4-(2-((4-Morpholinophenyl)amino)pyrimidin-4-yl)-N-(1,1,1-trifluoropropan-2-yl)benzamide]			0.746		12.5 °C	0.7			
O=C(c1ccc(-c2ccnc(Nc3ccc(N4CCOCC4)cc3)n2)cc1)N1CCC[C@H]1C(F)(F)F [BH1-159, (S)-(4-(2-((4-Morpholinophenyl)amino)pyrimidin-4-yl)phenyl) (2-(trifluoromethyl)pyrrolidin-1-yl) methanone]			74.2			1.1			
O=C(c1ccc(-c2ccnc(Nc3ccc(N4CCOCC4)cc3)n2)cc1)N1CCC[C@@H]1C(F)(F)F [BH1-160, (R)-(4-(2-((4-Morpholinophenyl)amino)pyrimidin-4-yl)phenyl) (2-(trifluoromethyl)pyrrolidin-1-yl) methanone]			8.56			1.4			
CN1CCC(c2ccc(Nc3ncc(F)c(-c4ccc(C(=O)NCC#N)cc4)n3)cc2F)CC1 [GM1-064, N-(Cyanomethyl)-4-(5-fluoro-2-((3-fluoro-4-(1-methylpiperidin-4-yl)phenyl)amino)pyrimidin-yl)benzamide]					8.0 °C	3.68			

Further lines, with some results ahead:

GI50 (U266) [nM]	GI50 (U266 PSR) [nM]	IC50 (JAK2 [1]) [nM]	IC50 (ULK3 [2]) [nM]	DSF (ULK3) ΔTm (° C.) (ULK3 [3])	DSF (JAK2) ΔTm (° C.) (JAK2 [4]) [°C]	Structure (SMILES)	GI50 (OPM2) [nM]	GI50 8226 [nM]	GI50 (8226 B25) [nM]
210	1580	1.31	8.71	14.3 °C and 14.4 °C		CC(NC(=O)c1ccc(-c2ccnc(Nc3ccc(N4CCOCC4)cc3)n2)cc1)C(F)(F)F (racemic) [SR8-170, (RS)-4-(2-((4-Morpholinophenyl)amino)pyrimidin-4-yl)-N-(1,1,1-trifluoropropan-2-yl)benzamide]	6700	290	404
		< 0.51		15.0 °C		N#CCNC(=O)c1ccc(-c2nc(Nc3ccc(N4CCOCC4)cc3)nc3[nH]ccc23)cc1 [BL4-139]			
			2280		0.5	O=C(NC(CO)Cc1ccccc1)c1ccc(-c2ccnc(Nc3ccc(N4CCOCC4)cc3)n2)cc1 (stereo not shown) [BR1-008]			
				11.0 °C and 13.1 °C	6.48	N#CCNC(=O)c1ccc(-c2nc(Nc3ccc(N4CCOCC4)cc3)ncc2Cl)cc1 [GM1-048, 4-(5-Chloro-2-((4-morpholinophenyl)amino)pyrimidin-4-yl)-N-(cyanomethyl)benzamide]			
917	2580	< 0.508				CN1CCN(Cc2ccc(Nc3nc(-c4ccc(C(=O)NCC#N)cc4)c4cc[nH]c4n3)cc2)CC1 [RF1-024, N-(Cyanomethyl)-4-(2-((4-((4-methylpiperazin-1-yl)methyl)phenyl)amino)-7H-pyrrolo[2,3-d]pyrimidin-4-yl)benzamide]	159	3630	9490
		0.745				O=C(NCC(F)(F)F)c1ccc(-c2nc(Nc3ccc(N4CCOCC4)cc3)nc3[nH]ccc23)cc1 [RF1-046, 4-(2-((4-Morpholinophenyl)amino)-7H-pyrrolo[2,3-d]pyrimidin-4-yl)-N-(2,2,2-trifluoro-ethyl)benzamide]			
4600	870			6.8 °C		CN1CCC(c2cnc(Nc3nc(-c4ccc(C(=O)NCC(F)(F)F)cc4)c4cc[nH]c4n3)cc2F)CC1 [RF1-060, 4-(2-((4-Fluoro-5-(1-methylpiperidin-4-yl)pyridin-2-yl)amino)-7H-pyrrolo[2,3-d]pyrimidin-4-yl)-N-(2,2,2-trifluoroethyl)benzamide]	909	12000	2930
86.2	4410	< 0.508	10.3	15.0 °C and 11.7 °C and 14.7 °C		O=C(NCC(F)(F)F)c1ccc(-c2ccnc(Nc3ccc(N4CCOCC4)cc3)n2)cc1 [SR8-169, 4-(2-((4-Morpholinophenyl)amino)pyrimidin-4-yl)-N-(2,2,2-trifluoroethyl)benzamide]	15.1	83.5	214
